{"source": "patent US20110207807A1", "about": "“NEW USE FOR HOMOISOFLAVONE OR A SALT THEREOF” (Catholic University Industry Academy Cooperation Foundation, priority 2008, published 2011)", "key": {"[1]": {"tested_on": "IL-8", "experiment": "UV-induced IL-8 mRNA expression in HaCaT cells (real-time PCR)", "type": "cell-based, human", "conditions": "1 μg/mL, UV 100 J/m^2, compared to control group (FIG. 3)", "method": "(§1) 1×10^6 HaCaT cells were inoculated on a 100-mm culture dish and cultured in DMEM containing 10% FBS for 24 hour. Then, the cells were starved by culturing for 24 hours in DMEM containing 1% FBS. Then, after treating with homoisoflavanone at 1 μg/mL for 1 hour, the cells were washed 3 times with PBS and irradiated with UV at 100 J/m^2 to induce increase of cytokines. Immediately after the UV radiation, the cells were washed again with PBS and further cultured for 2 or 5 hours in DMEM containing 1% FBS which had been treated with homoisoflavanone at the same concentration.\n(§2) After extracting RNA from the cells of each test group using TRIzol (Invitrogen, USA), cDNA was prepared by carrying out PCR (PTC-225 Peltier thermal cycler, MJ Research, USA). Then, the mRNA expression of IL-6, IL-8 and TNF-α was measured through real-time PCR (Roter Gene 6000 series, Corbett Research, Australia) using the cDNA as template and using commercially available IL-6, IL-8 and TNF-α primers. The expression level of the pro-inflammatory cytokines was compared relative to the non-treated group."}, "[2]": {"tested_on": "TNF-α", "experiment": "UV-induced TNF-α mRNA expression in HaCaT cells (real-time PCR)", "type": "cell-based, human", "conditions": "1 μg/mL, UV 100 J/m^2, compared to control group (FIG. 3)", "method": "as §1, §2"}, "[3]": {"tested_on": "BALB/c mouse", "experiment": "Ear edema induced by arachidonic acid in animal model", "type": "in vivo", "conditions": "topical 1 μg/10 μL homoisoflavanone or 50 μg/10 μL dexamethasone 1 h before arachidonic acid 100 mg/mL 10 μL, 1 hour after AA, vs AA control (FIG. 5a, 5b)", "method": "Experiment was carried out as follows using BALB/c mouse. Test groups are as follows: non-treated group—treated not with arachidonic acid (AA) but only with acetone; control group (AA)-treated with arachidonic acid; test group A—treated with 1 μg/10 μL homoisoflavanone or 50 μg/10 μL dexamethasone as well as 100 mg/mL 10 μL arachidonic acid.\nOne hour before treating with arachidonic acid, 1 μg/10 μL homoisoflavanone or 50 μg/10 μL dexamethasone was applied on the front and rear parts of the ear, 5 μL each. Then, 1 hour after applying 100 mg/mL 10 μL arachidonic acid, ear thickness and weight were measured."}, "[4]": {"tested_on": "leukotriene B4", "experiment": "Release of leukotriene B4 induced by PMA and A23187 in HMC-1 (enzyme immunoassay)", "type": "cell-based, human", "source_text": "Phorbol 12-myristate 13-acetate and A23187 lead to degranulation of human mast cells (HMC), causing the mast cells to release not only their histamine or serotonin but also newly produced inflammatory factors such as pro-inflammatory cytokines, prostaglandins and leukotrienes. It was investigated whether homoisoflavanone has anti-inflammatory effect in mast cells as in Examples 4 and 5. In order to investigate the effect of homoisoflavanone on the release of leukotriene induced by phorbol 12-myristate 13-acetate and A23187 in HMC-1, 1×10^6 HMC-1 cells were inoculated on a 100-mm culture dish and cultured in Iscove's modified Dulbecco's medium (IMDM, GIBCO) containing 10% FBS for 48 hours. Then, after treating with homoisoflavanone at 2 μg/mL or with mizolastine at 10 μg/mL for comparison for 1 hour, the cells were treated with 50 nM phorbol 12-myristate 13-acetate and 1 μM A23187 to induce release of leukotriene, and then further cultured for 21 hours. Then, the supernatant was collected and the quantity of released leukotriene B4 and C4 was measured using a leukotriene B4, C4 enzyme immunoassay kit (Sapphire Bioscience, Australia)."}, "[5]": {"tested_on": "HMC-1 cells", "experiment": "Histamine release during degranulation of HMC-1 (histamine enzyme assay kit)", "type": "cell-based, human", "conditions": "HMC-1, 2 μg/mL, 50 nM PMA + 1 μM A23187 (FIG. 8b)", "method": "In order to investigate the effect of homoisoflavanone on COX-2 expression induced by phorbol 12-myristate 13-acetate and A23187 in HMC-1, 1×10^5 HMC-1 cells were inoculated on a 6-well plate and cultured in IMDM containing 10% FBS for 48 hours. Then, after treating with homoisoflavanone at 2 μg/mL for 1 hour, the cells were treated with 50 nM phorbol 12-myristate 13-acetate and 1 μM A23187 to induce COX-2 expression, and then further cultured for 6 hours. Then, the cells were fixed with 2.5% glutaraldehyde and frozen with liquid nitrogen. The cells were detached from the plate by applying heat, sliced into […], attached on grids, and observed with a transmission electron microscope (TEM).\nIn order to measure histamine released during the degranulation, the cell supernatant was collected and subjected to measurement using a histamine enzyme assay kit (Cayman, USA) according to the manufacturer's instructions. First, the collected supernatant was anti-histamine derivatized and reacted with histamine-AChE tracer. Then, after washing at least 5 times followed by visualization for 60-90 minutes, absorbance was measured at 414 nm."}, "[6]": {"tested_on": "Hairless mice", "experiment": "Ear edema transiently induced by croton oil in animal model", "type": "in vivo, mouse", "conditions": "1 μg/10 μL topical 1 h before 1.6% croton oil, 6 hours after croton oil (FIG. 10b)", "method": "Hairless mice were subdivided into a non-treated group (treated with acetone only, not with croton oil), a control group (treated with 1.6% croton oil) and a test group (treated with 1 μg/10 μL homoisoflavanone and 1.6% croton oil), and the effect on ear edema induced by croton oil was investigated.\nOne hour before treating with 1.6% croton oil, 1 μg/10 μL homoisoflavanone was applied on the front and rear parts of the ear, 5 μL each. Then, 6 hours after treating with croton oil, ear thickness was measured."}}, "data": [{"smiles": "COc1ccc(CC2COc3cc(O)cc(O)c3C2=O)cc1O", "note": "(centres unmarked) [homoisoflavanone]", "values": [{"measurement": "expression of IL-8 (mRNA) induced by UV", "setting": "[1]", "result": "decreased expression"}, {"measurement": "expression of TNF-α (mRNA) induced by UV", "setting": "[2]", "result": "decreased expression"}, {"measurement": "ear thickness", "setting": "[3]", "result": "decrease"}, {"measurement": "ear weight", "setting": "[3]", "result": "decrease"}, {"measurement": "leukotriene B4 release when treated alone, versus non-treated group", "setting": "[4]; HMC-1, homoisoflavanone 2 μg/mL or mizolastine 10 μg/mL alone, without PMA/A23187 (FIG. 6a)", "result": "no appreciable difference"}, {"measurement": "inhibition of release of leukotriene B4", "setting": "[4]; HMC-1, homoisoflavanone 2 μg/mL or mizolastine 10 μg/mL, 50 nM PMA + 1 μM A23187, 21 hours (FIG. 6a)", "result": 70, "unit": "%"}, {"measurement": "inhibition of release of histamine", "setting": "[5]", "result": 72, "unit": "%"}, {"measurement": "decrease in ear thickness", "setting": "[6]", "result": 63, "unit": "%"}]}]}
